Experimental findings from patent publication US12478624B2, “Heterocyclic derivatives, pharmaceutical compositions and their use in the treatment or amelioration of cancer” (Tolremo Therapeutics AG, priority 2019, dated 2025) are described below.

Some results are limits rather than exact numbers.

For this assay, the system named is A375 cells. The experiment in a line: Assay 1: A375 cells treated with S1152, S1008 and compound, immunofluorescence (sc-365823) signal. The assay is classed as cell-based. As to conditions: 1 μM S1152 + 0.5 μM S1008, one day. The protocol:
One thousand four hundred A375 cells were seeded in each well of a 384 well microplate. One day later they were treated with 1 μM S1152 (Selleckchem) in dimethyl sulfoxide, 0.5 μM S1008 (Selleckchem) and dose ranges of invention compounds for one day in Dulbecco's Modified Eagle's Medium supplemented with 10% fetal calf serum and 2 mM (2S)-2-amino-4-carbamoylbutanoic acid. Wells were incubated with 4% polyoxymethylene (Sigma Aldrich 158127) at ambient temperature. […] After one minute phosphate-buffered saline was replaced with 0.2% polyethylene glycol octylphenyl ether in phosphate-buffered saline. […] 1% aminoethanoic acid in phosphate-buffered saline was added for ten minutes at ambient temperature. […] After one hour at ambient temperature in the dark, signal in wells was measured with a Acumen Cellista. 3,8-Diamino-5-[3-(diethylmethylammonio)propyl]-6-phenylphenanthridinium diiodide-positive objects were defined in FL3 (565-600 nm) with a perimeter between 50-800 μm and a total intensity of 10000-1000000 FLU. Signal in FL2 (500-530 nm) was measured in defined objects. A normalized ratio of total In FL2 over total In FL3 staining was log transformed. A non-linear regression (variable slope, 4 parameters) was used to calculate EC50 values using GraphPad Prism (Version 7.0d).
In an alternative procedure, assay 1 has been affected by changing the counteratain. […] Cells were incubated with 0.5 μg/ml 2-(4-Amidinophenyl)-6-indolecarbamidine dihydrochloride, 4′,6-Diamidino-2-phenylindole dihydrochloride (Sigma D9542) in phosphate-buffered saline for at least 30 minutes at ambient temperature in the dark. A Celigo Imager (Nexcelom) was used to acquire images in the blue and green channel. The blue channel was used as a mask to define the area for the green signal. The average integrated intensity of the green signal was normalized and a non-linear regression (variable slope, 4 parameter) was used to calculate the EC50 values using GraphPad Prism (Version 8.4)

By EC50 is commonly meant the concentration giving half of the maximal effect.

Regarding `CC(=O)N1C[C@H](c2nc(Nc3cc(F)cc(-c4nnco4)c3)cc(-c3cccnc3)n2)CC[C@@H]1C` [Compound 00166, 1-((2S,5R)-5-(4-((3-fluoro-5-(1,3,4-oxadiazol-2-yl)phenyl)amino)-6-(pyridin-3-yl)pyrimidin-2-yl)-2-methylpiperidin-1-yl)ethan-1-one], the EC50 was under 0.2 µM.

`CC(=O)N1C[C@@H](c2nc(Nc3cncc(C)c3)cc(-c3cnccn3)n2)CC[C@H]1C` [Compound 00002, 1-((2R,5S)-2-methyl-5-(4-((5-methylpyridin-3-yl)amino)-6-(pyrazin-2-yl)pyrimidin-2-yl)piperidin-1-yl)ethan-1-one]: the EC50 is over 10 µM.

On to `[2H]C([2H])([2H])[C@@H]1CC[C@H](c2nc(Nc3cncc(C)c3)cc(-c3cnccn3)n2)CN1C(C)=O` [Compound 00011], for which the concentration for a half-maximal effect (EC50) is over 10 µM.

Take `COc1cncc(-c2cc(Nc3cccc(Cl)c3)nc([C@@H]3CC[C@@H](C)N(C(C)=O)C3)n2)c1` (racemic) [Compound 00017, (+/−)-trans-1-(5-(4-((3-chlorophenyl)amino)-6-(5-methoxypyridin-3-yl)pyrimidin-2-yl)-2-methylpiperidin-1-yl)ethan-1-one]: the EC50 (Homo sapiens, A-375, 24 h) was in the range of 1 to 10 µM.

In the case of `CC(=O)N1C[C@H](c2nc(Nc3ccc4nc(C)oc4c3)cc(-c3cccnc3)n2)CC[C@@H]1C` [Compound 00037, 1-((2S,5R)-2-methyl-5-(4-((2-methylbenzo[d]oxazol-6-yl)amino)-6-(pyridin-3-yl)pyrimidin-2-yl)piperidin-1-yl)ethan-1-one], the concentration for a half-maximal effect (EC50) lay within 0.2 to 1 µM.

Turning to `CC[C@@H]1CC[C@@H](c2nc(Nc3cccc(C)c3)cc(-c3cccnc3)n2)CN1C(C)=O` (racemic) [Compound 00019, (+/−)-frans-1-(2-ethyl-5-(4-(pyridin-3-yl)-6-(m-tolylamino)pyrimidin-2-yl)piperidin-1-yl)ethan-1-one], the EC50 (Homo sapiens, A-375, 24 h) is over 10 µM.

Consider `CC(=O)N1C[C@H](c2nc(Nc3cccc(N4CCCC4=O)c3)cc(-c3cccnc3)n2)CC[C@@H]1C` [Compound 00048, 1-(3-((2-((3R,6S)-1-acetyl-6-methylpiperidin-3-yl)-6-(pyridin-3-yl)pyrimidin-4-yl)amino)phenyl)pyrrolidin-2-one], for which the EC50 was under 0.2 µM.

Turning to `CC(=O)N1C[C@@H](c2nc(Nc3ccncc3)cc(-c3cccnc3)n2)CC[C@H]1C` [Compound 00007], the half-maximal effective concentration (EC50) is over 10 µM.

On to `CC(=O)N1C[C@H](c2nc(Nc3ccc4[nH]ccc4c3)cc(-c3cccnc3)n2)CC[C@@H]1C` [Compound 00028, 1-((2S,5R)-5-(4-((1H-indol-5-yl)amino)-6-(pyridin-3-yl)pyrimidin-2-yl)-2-methylpiperidin-1-yl)ethan-1-one], for which the EC50 was under 0.2 µM.

As for `CC[C@@H]1CC[C@@H](c2nc(Nc3cccc(F)c3)cc(-c3cccnc3)n2)CN1C(C)=O` (racemic) [Compound 00021, (+/−)-trans-1-(2-ethyl-5-(4-((3-fluorophenyl)amino)-6-(pyridin-3-yl)pyrimidin-2-yl)piperidin-1-yl)ethan-1-one], under “Homo sapiens, A-375, 24 h”, the concentration for a half-maximal effect (EC50) was over 10 µM.

Regarding `CC(=O)N1C[C@H](c2nc(Nc3ccc4c(c3)NC(=O)C4)cc(-c3cccnc3)n2)CC[C@@H]1C` [Compound 00076, 6-((2-((3R,6S)-1-acetyl-6-methylpiperidin-3-yl)-6-(pyridin-3-yl)pyrimidin-4-yl)amino)indolin-2-one], the concentration for a half-maximal effect (EC50) was in the range of 0.2 to 1 µM.

For the compound `CC(=O)N1C[C@H](c2nc(Nc3ccnc(C)c3)cc(-c3cncc(C(=O)N(C)C)c3)n2)CC[C@@H]1C` [Compound 00109, 5-(2-((3R,6S)-1-acetyl-6-methylpiperidin-3-yl)-6-((2-methylpyridin-4-yl)amino)pyrimidin-4-yl)-N,N-dimethylnicotinamide], the EC50 is over 10 µM.

Turning to `COc1cncc(-c2cc(Nc3cccc(Cl)c3)nc([C@@H]3CC[C@H](C)N(C(C)=O)C3)n2)c1` (racemic) [Compound 00016, (+/−)-cis-1-(5-(4-((3-chlorophenyl)amino)-6-(5-methoxypyridin-3-yl)pyrimidin-2-yl)-2-methylpiperidin-1-yl)ethan-1-one], the EC50 is under 0.2 µM.

Turning to `CC(=O)N1C[C@H](c2nc(Nc3ccc4[nH]nnc4c3)cc(-c3cccnc3)n2)CC[C@@H]1C` [Compound 00033, 1-((2S,5R)-5-(4-((1H-benzo[d][1,2,3]triazol-5-yl)amino)-6-(pyridin-3-yl)pyrimidin-2-yl)-2-methylpiperidin-1-yl)ethan-1-one], the EC50 is 0.2 to 1 µM.

Consider `CC(=O)N1C[C@H](c2nc(Nc3ccc4nc[nH]c4c3)cc(-c3cccnc3)n2)CC[C@@H]1C` [Compound 00032, 1-((2S,5R)-5-(4-((1H-benzo[d]imidazol-6-yl)amino)-6-(pyridin-3-yl)pyrimidin-2-yl)-2-methylpiperidin-1-yl)ethan-1-one], for which the EC50 lay in the range of 0.2 to 1 µM.

As to `CC(=O)N1C[C@H](c2nc(Nc3cncc(N4CCCC4=O)c3)cc(-c3cccnc3)n2)CC[C@@H]1C` [Compound 00135, 1-(5-((2-((3R,6S)-1-acetyl-6-methylpiperidin-3-yl)-6-(pyridin-3-yl)pyrimidin-4-yl)amino)pyridin-3-yl)pyrrolidin-2-one], the concentration giving a half-maximal response (EC50) is 1 to 10 µM.

In the case of `CC(=O)N1C[C@H](c2nc(Nc3ccc4c(c3)B(O)OC4)cc(-c3cccnc3)n2)CC[C@@H]1C` [Compound 00034, 1-((2S,5R)-5-(4-((1-hydroxy-1,3-dihydrobenzo[c][1,2]oxaborol-6-yl)amino)-6-(pyridin-3-yl)pyrimidin-2-yl)-2-methylpiperidin-1-yl)ethan-1-one], the EC50 was 0.2 to 1 µM.

In the case of `CC(=O)N1C[C@H](c2nc(Nc3ccncc3)cc(-c3cccnc3)n2)CC[C@@H]1C` [Compound 00006], the concentration giving a half-maximal response (EC50) lay in the range of 0.2 to 1 µM.

On to `COc1cncc(-c2cc(Nc3cccc(Cl)c3)nc([C@@H]3CC[C@H](C)N(C(C)=O)C3)n2)c1` [Compound 00074, 1-((2S,5R)-5-(4-((3-chlorophenyl)amino)-6-(5-methoxypyridin-3-yl)pyrimidin-2-yl)-2-methylpiperidin-1-yl)ethan-1-one], for which the EC50 was under 0.2 µM.

For `COc1cc(-c2cc(Nc3ccnc(C)c3)nc([C@@H]3CC[C@H](C)N(C(C)=O)C3)n2)cnc1OC` [Compound 00110, 1-((2S,5R)-5-(4-(5,6-dimethoxypyridin-3-yl)-6-((2-methylpyridin-4-yl)amino)pyrimidin-2-yl)-2-methylpiperidin-1-yl)ethan-1-one], the 50% effective concentration (EC50) was over 10 µM.

Regarding `CC(=O)N1C[C@H](c2nc(Nc3cncc(C)c3)cc(-c3cncc4[nH]ccc34)n2)CC[C@@H]1C` (racemic) [Compound 00099, (+/−)-cis-1-(2-methyl-5-(4-((5-methylpyridin-3-yl)amino)-6-(1H-pyrrolo[2,3-c]pyridin-4-yl)pyrimidin-2-yl)piperidin-1-yl)ethan-1-one], the EC50 was in the range of 0.2 to 1 µM.

For `CC(=O)N1C[C@H](c2nc(Nc3cccc(C)c3)cc(-c3cccnc3)n2)CC[C@@H]1C(F)F` (racemic) [Compound 00027, (+/−)-cis-1-(2-(difluoromethyl)-5-(4-(pyridin-3-yl)-6-(m-tolylamino)pyrimidin-2-yl)piperidin-1-yl)ethan-1-one], the EC50 (Homo sapiens, A-375, 24 h) was in the range of 1 to 10 µM.

For `CC(=O)N1C[C@H](c2nc(Nc3cccc(F)c3)cc(-c3cccnc3)n2)CC[C@H]1C(F)(F)F` (racemic) [Compound 00024, (+/−)-trans-1-(5-(4-((3-fluorophenyl)amino)-6-(pyridin-3-yl)pyrimidin-2-yl)-2-(trifluoromethyl)piperidin-1-yl)ethan-1-one], under “Homo sapiens, A-375, 24 h”, the EC50 was over 10 µM.

As for `CC(=O)N1C[C@H](c2nc(Nc3cncc(C)c3)cc(-c3cncc(C)c3)n2)CC[C@@H]1C` (racemic) [Compound 00098, (+/−)-c/s-1-(2-methyl-5-(4-(5-methylpyridin-3-yl)-6-((5-methylpyridin-3-yl)amino)pyrimidin-2-yl)piperidin-1-yl)ethan-1-one], the EC50 was under 0.2 µM.

Turning to `[2H]C([2H])([2H])[C@H]1CC[C@@H](c2nc(Nc3cncc(C)c3)cc(-c3cnccn3)n2)CN1C(C)=O` [Compound 000012], the EC50 was under 0.2 µM.

Turning to `[2H]C([2H])([2H])[C@H]1CC[C@@H](c2nc(Nc3cccc(F)c3)cc(-c3cccnc3)n2)CN1C(C)=O` [Compound 00010], the EC50 is under 0.2 µM.

`CC(=O)N1C[C@H](c2nc(Nc3ccc4ncncc4c3)cc(-c3cccnc3)n2)CC[C@@H]1C` [Compound 00121, 1-((2S,5R)-2-methyl-5-(4-(pyridin-3-yl)-6-(quinazolin-6-ylamino)pyrimidin-2-yl)piperidin-1-yl)ethan-1-one]: the EC50 is under 0.2 µM.

For `CC(=O)Nc1ccc(Nc2cc(-c3cccnc3)nc([C@@H]3CC[C@H](C)N(C(C)=O)C3)n2)cc1O` [Compound 00036, N-(4-((2-((3R,6S)-1-acetyl-6-methylpiperidin-3-yl)-6-(pyridin-3-yl)pyrimidin-4-yl)amino)-2-hydroxyphenyl)acetamide], the 50% effective concentration (EC50) is 1 to 10 µM.
